# Test results published in publication PMC9814340, “CDK8/19 inhibition plays an important role in pancreatic β-cell induction from human iPSCs” (Stem Cell Research & Therapy, 2023).
# Entries after “also recorded” stand apart in the source; their conditions may differ. Read-outs that look alike come from different tables or passages of the source.
# What was measured:
# [1] = test system: Salmonella typhimurium TA1537
# Excerpt: (§1) Salmonella typhimurium TA100, TA1535, TA98, and TA1537, and Escherichia coli WP2uvrA were used to detect either frameshift mutations (TA98 and TA1537) or base pair substitutions (TA100, TA1535, and WP2uvrA). These strains are widely used and recommended for use in ICH S2(R1) for the bacterial reversion assay.
# (§2) In the current study, rat liver S9 fraction, […], was not included because the mutagenicity of compounds should be assessed when simulating cell cultures but not in vivo after metabolism by liver enzymes. Briefly, each tester strain was mixed with seven concentrations (78.1–5000 μg/plate) of each compound and preincubated for 20 min in test tubes. Two plates per dose for the tested compounds and positive control group, and four plates per dose for the negative control group were used. Dimethyl sulfoxide (FUJIFILM Wako) was selected as solvent for the tested compounds and used as negative control. […] Following preincubation, semisolid top agar was added to the tubes, and then, the mixtures were overlaid on minimal glucose agar plates. After the overlaid agar solidified, the plates were stored at 37 °C in an incubator for 48 h.
# (§3) Cultures were examined for signs of compound precipitation and other abnormal conditions by eye. Subsequently, cytotoxicity (decreased background lawn) was assessed using a stereomicroscope. The number of revertant colonies on the plates was counted using an automatic colony analyzer (CA-11, System Science Co., Ltd., Tokyo, Japan) or manually when counting by the automatic colony analyzer was inappropriate, e.g., when precipitation was observed.
# [2] = target: T1, ALK5 (Homo sapiens, UniProt P36897); assay: TR-FRET-based competitive binding kinase profiling assay; conditions: Yes/No summary of Fig. 1d; method not given
# T1 construct: Axcelead Drug Discovery Partners (ran the assay)
# T1 sequence (P36897 34-503): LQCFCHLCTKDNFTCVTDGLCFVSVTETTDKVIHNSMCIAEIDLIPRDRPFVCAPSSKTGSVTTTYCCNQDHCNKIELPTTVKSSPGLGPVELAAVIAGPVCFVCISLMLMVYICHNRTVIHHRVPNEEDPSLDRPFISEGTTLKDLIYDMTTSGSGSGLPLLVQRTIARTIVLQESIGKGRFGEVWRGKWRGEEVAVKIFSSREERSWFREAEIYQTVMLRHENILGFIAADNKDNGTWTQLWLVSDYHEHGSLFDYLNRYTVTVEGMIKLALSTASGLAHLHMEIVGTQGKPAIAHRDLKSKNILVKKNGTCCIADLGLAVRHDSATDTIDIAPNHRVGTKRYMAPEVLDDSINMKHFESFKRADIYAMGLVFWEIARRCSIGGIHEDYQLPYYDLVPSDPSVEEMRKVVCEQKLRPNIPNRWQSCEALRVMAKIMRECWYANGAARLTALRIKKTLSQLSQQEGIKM
# [3] = test system: Salmonella typhimurium TA100, TA1535, TA98, and TA1537, and Escherichia coli WP2uvrA; assay: Ames mutagenicity assay (bacterial reverse mutation test), five strains, absence of rat liver S9; conditions: for Ames Mutagenicity: result in words, absence of rat liver S9, 78.1-5000 μg/plate
# Excerpt: as §1, §2, §3
# [4] = test system: β-cells (INS+NKX6.1+) differentiated from human iPSC line Ff-I14-s04; assay: β-cell induction in iPIC differentiation from hiPSCs (compound at stages 5-7), flow cytometry; assay type: cell-based; conditions: for proportion of β-cells (INS+NKX6.1+), representative dot plot: Fig. 3a
# Protocol: For differentiation culture to generate iPICs, we used 2D monolayer to static aggregate culture based on our previous report and 3D stirred-floating aggregate culture. The details of the typical 3D floating culture were as follows.
# PD-166866 (1 μM, Merck Millipore) was added from day 4 of stage 6.
# Stage 7 medium was based on a previous report with our original modifications. […] To generate iPICs for implantation, cells were dissociated and re-sized in an Elplasia 6-well microwell plate (Corning Incorporated, Corning, NY, USA) or a gas-permeable microwell culture bag (Toyo Seikan Group Holdings, Ltd., Yokohama, Japan) and cultured in the stage 7 medium.
# The differentiation efficiency of β-cells (INS^+NKX6.1^+) and endocrine cells (CHGA^+) was analyzed using immunostaining methods and flow cytometry on an LSRFortessa X20 instrument (BD Corporation, Franklin Lakes, NJ, USA), as described previously. The primary antibodies used are detailed in Additional file 1: Table S1. Secondary antibodies were conjugated to Alexa Fluor 488, 546, 568, and 647 of the appropriate species (Thermo Fisher Scientific or Jackson ImmunoResearch, West Grove, PA, USA).
# [5] = target: T2, CDK8 (Homo sapiens, UniProt P49336); assay: biochemical
# Protocol: (§4) Briefly, BODIPY-FL- or Cy5-FL-conjugated staurosporine derivative that binds to a highly conserved ATP-binding pocket in kinases was used as a fluorescent probe and tested compounds were applied at 0.1 and 1 μM in competitive binding assays for ~ 350 recombinant protein kinases. TR-FRET fluorescent signals from terbium and BODIPY/Cy5-FL were measured using an EnVision plate reader (PerkinElmer, Waltham, MA, USA), and pIC50 values were extrapolated from the inhibition rate.
# [6] = target: TNIK (Homo sapiens, UniProt Q9UKE5); assay: biochemical
# Protocol: as §4
# [7] = target: CDK19 (Homo sapiens, UniProt Q9BWU1); assay: biochemical
# Protocol: as §4
# [8] = target: TGFBR2 (Homo sapiens, UniProt P37173); assay: biochemical
# Protocol: as §4
# [9] = target: RIPK2 (Homo sapiens, UniProt O43353); assay: biochemical
# Protocol: as §4
# [10] = target: T2, CDK8; parameters: Axcelead Drug Discovery Partners (ran the assay); method as in PMID 28392276; conditions: cited from earlier work
# T2 sequence (P49336 whole entry, species assumed): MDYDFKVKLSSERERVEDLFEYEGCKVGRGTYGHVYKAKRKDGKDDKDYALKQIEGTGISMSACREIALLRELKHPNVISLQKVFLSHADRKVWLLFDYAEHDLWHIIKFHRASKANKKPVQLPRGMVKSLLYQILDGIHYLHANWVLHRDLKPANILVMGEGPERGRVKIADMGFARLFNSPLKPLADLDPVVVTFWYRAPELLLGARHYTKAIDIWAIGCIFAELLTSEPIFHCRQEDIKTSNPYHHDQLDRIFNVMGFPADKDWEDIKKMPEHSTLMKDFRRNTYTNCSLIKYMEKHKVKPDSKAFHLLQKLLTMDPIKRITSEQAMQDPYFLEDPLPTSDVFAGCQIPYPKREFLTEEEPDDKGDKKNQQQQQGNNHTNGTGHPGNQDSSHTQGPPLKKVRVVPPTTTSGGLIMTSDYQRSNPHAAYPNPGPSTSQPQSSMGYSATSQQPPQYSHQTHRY
# T2 sequence (P24863 whole entry partner, species assumed): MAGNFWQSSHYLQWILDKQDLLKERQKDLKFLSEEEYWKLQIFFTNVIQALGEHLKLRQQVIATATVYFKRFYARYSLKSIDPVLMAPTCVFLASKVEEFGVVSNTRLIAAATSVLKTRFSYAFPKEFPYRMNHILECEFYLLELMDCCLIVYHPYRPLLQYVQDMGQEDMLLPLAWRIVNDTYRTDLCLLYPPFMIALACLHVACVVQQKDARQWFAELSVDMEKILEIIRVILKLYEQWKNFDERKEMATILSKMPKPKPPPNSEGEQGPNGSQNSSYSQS
# Sequence of RIPK2 (O43353 whole entry, species assumed): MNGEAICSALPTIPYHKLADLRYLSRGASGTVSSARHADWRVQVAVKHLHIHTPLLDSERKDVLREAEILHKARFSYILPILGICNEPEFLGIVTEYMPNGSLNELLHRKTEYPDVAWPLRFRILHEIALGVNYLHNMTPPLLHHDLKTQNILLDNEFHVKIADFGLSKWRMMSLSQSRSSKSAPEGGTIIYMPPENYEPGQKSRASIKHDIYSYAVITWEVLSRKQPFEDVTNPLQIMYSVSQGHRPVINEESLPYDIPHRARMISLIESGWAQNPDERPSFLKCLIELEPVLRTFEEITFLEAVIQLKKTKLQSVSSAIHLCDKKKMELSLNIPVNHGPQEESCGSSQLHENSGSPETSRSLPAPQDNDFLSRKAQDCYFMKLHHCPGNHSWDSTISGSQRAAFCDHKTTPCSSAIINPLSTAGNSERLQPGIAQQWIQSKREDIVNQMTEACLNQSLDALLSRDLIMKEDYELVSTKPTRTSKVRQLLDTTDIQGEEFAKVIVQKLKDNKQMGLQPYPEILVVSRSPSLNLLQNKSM
# Sequence of TNIK (Q9UKE5 whole entry, species assumed): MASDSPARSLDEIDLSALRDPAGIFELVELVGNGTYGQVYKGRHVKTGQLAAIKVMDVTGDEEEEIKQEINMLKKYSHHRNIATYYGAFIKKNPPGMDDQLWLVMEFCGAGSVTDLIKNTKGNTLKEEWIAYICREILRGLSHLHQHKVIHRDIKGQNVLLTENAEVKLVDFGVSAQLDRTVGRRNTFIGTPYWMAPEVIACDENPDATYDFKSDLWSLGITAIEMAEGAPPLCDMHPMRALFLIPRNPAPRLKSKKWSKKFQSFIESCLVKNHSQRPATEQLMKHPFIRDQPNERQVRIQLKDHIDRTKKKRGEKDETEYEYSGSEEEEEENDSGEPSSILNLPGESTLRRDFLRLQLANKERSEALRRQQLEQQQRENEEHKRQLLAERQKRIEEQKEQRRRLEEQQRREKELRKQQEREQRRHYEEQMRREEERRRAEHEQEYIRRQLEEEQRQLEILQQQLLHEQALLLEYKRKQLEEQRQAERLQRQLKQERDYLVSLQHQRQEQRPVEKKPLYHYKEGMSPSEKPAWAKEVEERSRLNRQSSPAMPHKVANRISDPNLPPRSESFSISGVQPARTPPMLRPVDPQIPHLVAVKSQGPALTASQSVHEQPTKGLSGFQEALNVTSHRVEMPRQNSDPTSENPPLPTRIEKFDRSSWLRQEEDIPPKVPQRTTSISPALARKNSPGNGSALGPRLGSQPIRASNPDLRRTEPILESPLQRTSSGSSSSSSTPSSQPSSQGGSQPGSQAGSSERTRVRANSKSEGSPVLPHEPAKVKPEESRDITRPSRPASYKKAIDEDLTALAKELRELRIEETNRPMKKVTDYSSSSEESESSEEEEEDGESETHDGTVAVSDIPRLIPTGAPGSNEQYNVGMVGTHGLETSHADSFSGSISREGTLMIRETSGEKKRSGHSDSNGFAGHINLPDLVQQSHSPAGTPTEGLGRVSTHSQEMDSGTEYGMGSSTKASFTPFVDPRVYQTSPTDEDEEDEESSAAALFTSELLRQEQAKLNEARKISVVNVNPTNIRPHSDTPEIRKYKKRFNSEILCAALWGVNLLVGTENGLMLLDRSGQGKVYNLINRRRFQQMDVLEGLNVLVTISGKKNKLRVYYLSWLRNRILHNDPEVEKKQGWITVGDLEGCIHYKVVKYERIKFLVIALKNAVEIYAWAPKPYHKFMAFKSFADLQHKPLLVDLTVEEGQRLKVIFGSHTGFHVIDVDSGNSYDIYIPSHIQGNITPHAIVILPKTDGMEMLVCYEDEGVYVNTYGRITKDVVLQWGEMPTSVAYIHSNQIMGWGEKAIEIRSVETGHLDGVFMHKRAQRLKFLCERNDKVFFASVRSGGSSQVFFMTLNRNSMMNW
# Sequence of TGFBR2 (P37173 23-567, species assumed): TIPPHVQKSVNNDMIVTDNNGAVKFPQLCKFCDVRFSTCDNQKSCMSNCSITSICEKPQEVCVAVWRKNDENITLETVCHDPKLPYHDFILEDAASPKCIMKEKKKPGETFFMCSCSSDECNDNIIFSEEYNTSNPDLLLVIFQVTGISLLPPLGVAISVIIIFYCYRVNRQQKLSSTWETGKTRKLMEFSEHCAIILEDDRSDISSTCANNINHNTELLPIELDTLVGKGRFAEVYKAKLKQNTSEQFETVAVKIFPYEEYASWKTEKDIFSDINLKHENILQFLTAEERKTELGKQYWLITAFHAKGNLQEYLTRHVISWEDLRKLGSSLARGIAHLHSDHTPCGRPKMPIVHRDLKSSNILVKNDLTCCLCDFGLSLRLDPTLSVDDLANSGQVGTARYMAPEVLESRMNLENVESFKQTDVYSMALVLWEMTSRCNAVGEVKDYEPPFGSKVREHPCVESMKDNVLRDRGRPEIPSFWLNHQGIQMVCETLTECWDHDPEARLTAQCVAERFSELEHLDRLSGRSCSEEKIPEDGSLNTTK
# Sequence of CDK19 (Q9BWU1 whole entry, species assumed): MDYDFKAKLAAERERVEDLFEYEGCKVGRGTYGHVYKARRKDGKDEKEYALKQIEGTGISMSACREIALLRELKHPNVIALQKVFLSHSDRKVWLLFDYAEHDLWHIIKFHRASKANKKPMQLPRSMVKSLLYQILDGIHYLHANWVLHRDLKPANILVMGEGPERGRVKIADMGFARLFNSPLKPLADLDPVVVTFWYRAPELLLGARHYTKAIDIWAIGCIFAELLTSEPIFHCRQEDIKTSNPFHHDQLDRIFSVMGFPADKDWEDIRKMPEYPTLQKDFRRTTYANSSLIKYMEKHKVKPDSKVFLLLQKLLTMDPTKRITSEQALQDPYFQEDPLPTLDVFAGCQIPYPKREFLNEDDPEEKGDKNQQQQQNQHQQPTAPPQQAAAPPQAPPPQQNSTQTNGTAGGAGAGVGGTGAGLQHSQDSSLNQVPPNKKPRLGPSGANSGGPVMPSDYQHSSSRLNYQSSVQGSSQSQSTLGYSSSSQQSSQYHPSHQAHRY
# Sequence of CDK19 (P24863 whole entry partner, species assumed): as the sequence (P24863 whole entry partner, species assumed) above
smiles,measurement,setting,value
"Cl.Nc1c2ccccc2nc2ccccc12.O [9-AA, 9-aminoacridine hydrochloride monohydrate]","TA1537, -S9 # colony","[1]; positive control, 80 μg",169
Cc1cccc(-c2n[nH]cc2-c2ccc3ncccc3n2)n1 [ALK5iII],Ames response in the TA1537 strain,[1],positive response
same,"TA1537, -S9 # colony",[1]; Salmonella typhimurium,8
same,ALK5 inhibition,[2],Yes
same,Ames mutagenicity test,"[3]; Fig. 1b flowchart, absence of S9, positive = mean revertant colonies at least twofold the negative control in any strain",(+)
same,Ames Mutagenicity,[3],Positive
same,"proportion of β-cells (INS+NKX6.1+), representative dot plot",[4]; 10 μM ALK5iII at stages 5-7,35.0%
same,IC50,[5],0.158 µM
same,IC50,[6],0.661 µM
same,IC50,[7],0.0661 µM
same,IC50,[8],0.107 µM
same,IC50,[9],0.151 µM
CN(C)C(=O)Cn1cc(-c2ccc(-c3cncc4ccccc34)cc2)cn1 [BI-1347],"proportion of β-cells (INS+NKX6.1+), representative dot plot","[4]; 3 nM, instead of ALK5iII, stages 5-7",39.8%
"COc1ccc2nc3cc(Cl)ccc3c(NCCCNCCCl)c2c1.Cl.Cl [ICR, [6-Chloro-9-(3-[2-chloroethylamino]propylamino)-2-methoxyacridine] dihydrochloride]","TA1537, -S9 # colony","[1]; positive control, 1.0 μg",1804
NC(=O)c1ccc(-c2nc(-c3ccc4c(c3)OCO4)c(-c3ccccn3)[nH]2)cc1 [SB431542],Ames Mutagenicity,[3],did not have mutagenic potential; also recorded: negative
Cc1cccc(-c2[nH]c(C(C)(C)C)nc2-c2ccc3nccnc3c2)n1 [SB525334],Ames Mutagenicity,[3],Negative; also recorded: did not have mutagenic potential
CN1CCN(C(=O)c2ccc3cc(CCNc4ncnc5ccc(C#N)cc45)ccc3c2)CC1 [Senexin B],"proportion of β-cells (INS+NKX6.1+), representative dot plot","[4]; 0.1 μM, instead of ALK5iII, stages 5-7",39.7%
c1cncc(-c2n[nH]cc2-c2cnc3ccccc3n2)c1 [TR04411299],"TA1537, -S9 # colony","[1]; 78.1 μg/plate, DMSO control 8 (ALK5 inhibitor II) / 9 (TR04411299)",5
same,"TA1537, -S9 # colony","[1]; 156 μg/plate, DMSO control 8 / 9",9
same,"TA1537, -S9 # colony","[1]; 313 μg/plate, DMSO control 8 / 9",21
same,"TA1537, -S9 # colony","[1]; 625 μg/plate, DMSO control 8 / 9",45
same,"TA1537, -S9 # colony","[1]; 1250 μg/plate, DMSO control 8 / 9",82
same,"TA1537, -S9 # colony","[1]; 2500 μg/plate, DMSO control 8 / 9",128
same,"TA1537, -S9 # colony","[1]; 5000 μg/plate, DMSO control 8 / 9",194
same,ALK5 inhibition,[2],No and did not inhibit ALK5
same,Ames Mutagenicity,[3],positive result
Cn1cc(-c2ccnc(O)c2/C=C/C(=O)Nc2ccc(CN3CCOCC3)cc2)cn1 [TR05978156],β-cell induction / differentiation efficiency,"[4]; result in words, compound replaces ALK5iII at stages 5-7",did not induce β-cells efficiently
same,IC50,[10],> 10 µM
O=C(/C=C/c1cnccc1-c1cnn(C2CC2)c1)Nc1ccc(CN2CCOCC2)cc1 [TR06096159],IC50,[10],0.0064 µM
